Data: PMC12128149, “Molecular Hybrids of Quinoline and Sulfonamide: Design, Synthesis and in Vitro Anticancer Studies” (ChemistryOpen, 2024)
Structures can show the parent of a compound that is named as a salt.

Assays:
Assay type in all cases: cell-based
K562 = experiment: MTS cytotoxicity testing, K562 cells; conditions: Homo sapiens, BTK high cells
Experimental: (§1) Cell lines: The cells were sourced from either the DSMZ (Braunschweig, Germany) or the ATCC (Middlesex, UK). They were maintained in the recommended growth medium, supplemented with 10 % fetal calf serum, antibiotics (100 U/mL penicillin and […]), 2 mM glutamine, 1 mM NaHCO3, 1 mM sodium pyruvate, and 20 mM HEPES. The cells were incubated at 37 °C in a humidified atmosphere with 5 % CO2. Cell lines were routinely verified and checked for mycoplasma contamination every two weeks to once a month.
(§2) MTS cytotoxicity testing: An MTS assay method was developed in our laboratory for routine drug screening. This technique was used to assess the cytotoxicity of compounds, and the IC50 values were determined as previously described.[27]

HCT116 = experiment: MTS cytotoxicity testing, HCT116 cells; conditions: Homo sapiens, HCT-116; ITK/BTK null cells
Experimental: as §1, §2

[1] = MTS cytotoxicity testing, MRC‐5 non‐cancer cells; conditions: human
Experimental: as §1, §2

A549 = experiment: MTS cytotoxicity testing, A549 cells; conditions: Homo sapiens, ITK/BTK null cells
Experimental: as §1, §2

RAMOS = experiment: MTS cytotoxicity testing, RAMOS cells; conditions: Homo sapiens, BTK high cells
Experimental: as §1, §2

MOLT‐4 = experiment: MTS cytotoxicity testing, MOLT‐4 cells; conditions: Homo sapiens, ITK high cells
Experimental: as §1, §2

[2] = MTS cytotoxicity testing, BJ non‐cancer cells; conditions: human
Experimental: as §1, §2

U2OS = experiment: MTS cytotoxicity testing, U2OS cells; conditions: Homo sapiens, ITK/BTK null cells
Experimental: as §1, §2

Jurkat = experiment: MTS cytotoxicity testing, Jurkat cells; conditions: Homo sapiens, ITK high cells
Experimental: as §1, §2

CCRF‐CEM = experiment: MTS cytotoxicity testing, CCRF‐CEM cells; conditions: Homo sapiens, ITK high cells
Experimental: as §1, §2

SMILES | IC50 (K562) [µM] | IC50 (HCT116) [µM] | IC50 [1] [µM] | IC50 (A549) [µM] | IC50 (RAMOS) [µM] | IC50 (MOLT‐4) [µM] | IC50 [2] [µM] | IC50 (U2OS) [µM] | IC50 (Jurkat) [µM] | IC50 (CCRF‐CEM) [µM]
N#Cc1cccc(-c2cc(S(=O)(=O)N3CCCCC3)c3ncccc3c2)c1 [9k, 3‐(8‐(piperidin‐1‐ylsulfonyl)quinolin‐6‐yl)benzonitrile] | > 50 | > 50 | > 50 | > 50 | > 50 | > 50 | > 50 | > 50 | > 50 | > 50
O=S(=O)(c1cc(-c2ccc(O)c(F)c2)cc2cccnc12)N1CCCCC1 [9f, 2‐fluoro‐4‐(8‐(piperidin‐1‐ylsulfonyl)quinolin‐6‐yl)phenol] | 9.69 ± 2.41 | > 50 | > 50 | > 50 | 9.69 ± 2.41 | > 50 | > 50 | > 50 | 13 ± 6.43 | 17.1 ± 4.64
O=S(=O)(c1cc(-c2ccc(C(F)(F)F)cc2)cc2cccnc12)N1CCCCC1 [9m, 8‐(piperidin‐1‐ylsulfonyl)‐6‐(4‐(trifluoromethyl)phenyl)quinoline] | > 50 | > 50 | > 50 | > 50 | 8.11 ± 1.29 | > 50 | > 50 | > 50 | 11.3 ± 1.13 | > 50
O=S(=O)(c1cc(-c2ccccc2F)cc2cccnc12)N1CCCCC1 [9c, 6‐(2‐fluorophenyl)‐8‐(piperidin‐1‐ylsulfonyl)quinoline] | > 50 | > 50 | > 50 | > 50 | > 50 | > 50 | > 50 | > 50 | 12.7 ± 5.45 | > 50
COc1cc(-c2cc(S(=O)(=O)N3CCCCC3)c3ncccc3c2)cc(Cl)c1O [9h, 2‐chloro‐6‐methoxy‐4‐(8‐(piperidin‐1‐ylsulfonyl)quinolin‐6‐yl)phenol] | > 50 | > 50 | > 50 | > 50 | > 50 | > 50 | > 50 | > 50 | > 50 | > 50
O=S(=O)(c1cc(-c2ccc3nc[nH]c3c2)cc2cccnc12)N1CCCCC1 [9p, 6‐(1H‐benzo[d]imidazol‐6‐yl)‐8‐(piperidin‐1‐ylsulfonyl)quinoline hydrochloride] | > 50 | > 50 | > 50 | > 50 | > 50 | > 50 | > 50 | > 50 | 21.2 ± 3.49 | 13.2 ± 1.25
O=S(=O)(c1cc(-c2ccc(O)cc2)cc2cccnc12)N1CCCCC1 [9e, 4‐(8‐(piperidin‐1‐ylsulfonyl)quinolin‐6‐yl)phenol] | 5.47 ± 1.71 | > 50 | > 50 | > 50 | 5.47 ± 1.71 | > 50 | > 50 | > 50 | 7.43 ± 7.4 | 28.6 ± 7.64
O=S(=O)(c1cc(-c2cccc(Cl)c2)cc2cccnc12)N1CCCCC1 [9b, 6‐(3‐chlorophenyl)‐8‐(piperidin‐1‐ylsulfonyl)quinoline] | > 50 | > 50 | > 50 | > 50 | > 50 | > 50 | > 50 | > 50 | > 50 | > 50
O=S(=O)(c1cc(-c2cc(Cl)c(O)c(Cl)c2)cc2cccnc12)N1CCCCC1 [9g, 2,6‐dichloro‐4‐(8‐(piperidin‐1‐ylsulfonyl)quinolin‐6‐yl)phenol] | > 50 | > 50 | > 50 | > 50 | > 50 | > 50 | > 50 | > 50 | > 50 | > 50
O=S(=O)(c1cc(-c2ccccc2)cc2cccnc12)N1CCCCC1 [9a, 6‐phenyl‐8‐(piperidin‐1‐ylsulfonyl)quinoline] | > 50 | > 50 | > 50 | > 50 | > 50 | > 50 | > 50 | > 50 | > 50 | > 50
Nc1cccc(-c2cc(S(=O)(=O)N3CCCCC3)c3ncccc3c2)c1 [9j, 3‐(8‐(piperidin‐1‐ylsulfonyl)quinolin‐6‐yl)aniline hydrochloride] | > 50 | > 50 | > 50 | > 50 | > 50 | 5.57 ± 7.56 | > 50 | > 50 | > 50 | > 50
COc1cccc(-c2cc(S(=O)(=O)N3CCCCC3)c3ncccc3c2)c1 [9i, 6‐(3‐methoxyphenyl)‐8‐(piperidin‐1‐ylsulfonyl)quinoline] | > 50 | > 50 | > 50 | > 50 | > 50 | > 50 | > 50 | > 50 | 8.43 ± 6.43 | 38.6 ± 4.64
O=S(=O)(c1cc(-c2ccccc2Br)cc2cccnc12)N1CCCCC1 [9d, 6‐(2‐bromophenyl)‐8‐(piperidin‐1‐ylsulfonyl)quinoline] | > 50 | > 50 | > 50 | > 50 | 12.7 ± 3.71 | > 50 | > 50 | > 50 | 13.5 ± 6.25 | > 50
COc1cc(-c2cc(S(=O)(=O)N3CCCCC3)c3ncccc3c2)ccn1 [9o, 6‐(2‐methoxypyridin‐4‐yl)‐8‐(piperidin‐1‐ylsulfonyl)quinoline] | > 50 | > 50 | > 50 | > 50 | 6.76 ± 0.79 | > 50 | > 50 | > 50 | 11.4 ± 3.49 | 15.3 ± 2.25
O=S(=O)(c1cc(-c2cccc(OC(F)(F)F)c2)cc2cccnc12)N1CCCCC1 [9l, 8‐(piperidin‐1‐ylsulfonyl)‐6‐(3‐(trifluoromethoxy)phenyl)quinolone] | > 50 | > 50 | > 50 | > 50 | > 50 | > 50 | > 50 | > 50 | 12.1 ± 6.43 | > 50
O=S(=O)(c1cc(-c2ccnc(F)c2)cc2cccnc12)N1CCCCC1 [9n, 6‐(2‐fluoropyridin‐4‐yl)‐8‐(piperidin‐1‐ylsulfonyl)quinoline] | > 50 | > 50 | > 50 | > 50 | 2.76 ± 0.79 | > 50 | > 50 | > 50 | > 50 | 19.4 ± 0.78
